Where “and” joins values, the source holds several entries; their conditions need not be identical. Identical values can stand only once.
How the values were obtained:
[1] = tested on: YAC1 target cells; test: Natural killer cell activity in old C57BL/6J mice (in vivo treatment, spleen cells); set-up: species or system mouse
Procedure: For this test compound 7 was injected at a dose of 1.67 mg per mouse and 3.34 mg per mouse and after a day the natural killer cell activity of the spleen cells was determined.
i.p. route. Spleens after treatment were removed, cells were isolated and […]

[2] = tested on: YAC-1 tumor target cells; test: In vivo potentiation of natural killer cell activity in CBA/CaJ mice (spleen cells); conditions: for % Natural Killer Cytotoxicity: 1.68 mg/mouse i.p.
Procedure: After 1, 2, 3 and 4 days of treatment the spleens of the mice were harvested and the cytotoxic activity of the spleen cells was determined against YAC-1 tumor target cells in the above referred to ^51 Cr release assay as identified in EXAMPLE 32.
(1.68 mg/mouse) by intraperitoneal route.
Each value represents mean ±SD cytotoxic activity of three mice

[3] = tested on: Banzi Virus; type: in vivo, mouse; conditions: compound 7 100 mg/kg at -24 h, saline days 0-6; of mice that died
[4] = tested on: Herpes Simplex Virus Type 1; test: Antiviral activity against Herpes simplex virus type 1 infection in mice; type: in vivo, mouse; conditions: at -48, -24, and -2 h
[5] = tested on: K562 tumor cells; test: In vitro augmentation of human natural killer cell activity (PBMNC, 51Cr release); type: cell-based; set-up: % Increase in Induced Natural Killer Cell Activity: concentration or dose not given beside the values
Procedure: The natural killer cell activity in human cells was also measured. In conducting these tests peripheral blood mononuculear cells (PBMNC) were isolated on Ficoll-Hypaque gradient, washed three times in Hanks and re-suspended in RPMI-1640 containing 10% human AB serum as described in Rosenberg, S. A.: Journal American Medical Association, 256:3117, 1986 and the above referred to reference to Djeu, et al. Peripheral blood mononuclear cells (PBMNC) from eleven different donors were treated with compound 7 as described in Djeu, et al. as well as Sharma, B., Odom, L. F.: Cancer Immunol. Immunother. 7.93, 1979, and Sharma, B., Odom, L. F.: Cancer Research 44:3258, 1984.
The PBMNC cells were incubated with compound 7 at 37° C. for 20 to 68 hours in a 5% CO2 humid atmosphere and after incubation the cytotoxicity was determined against K562 tumor cells.
^a Peripheral blood mononuclear cells were treated with 0.05 - 0.4 mM
concentration of compound 7 in RPM11640 containing 10% human AB serum for
20 to 68 hours. After the treatment, effector cells were tested against
K562 target cells in 4 hour ^51 Cr release assay as described in
Sharma et al. above. The data shown here represent the maximum response.
K562 target cells in 4 hour ^51 Cr release assay as previously
described above in Sharma et al. The data represent the maximum response.
Other Nucleosides and Nucleotides of the invention were tested for their activity in human natural killer cells […] as per example 33 above.

Nc1nc2c(sc(=O)n2[C@@H]2O[C@H](CO)[C@@H](O)[C@H]2O)c(=O)[nH]1 [Compound 7, 5-Amino-3-β-D-ribofuranosylthiazolo[4,5-d]pyrimidine-2,7(6H)-dione]
% Natural Killer Cell Cytotoxicity ([1]; 8 month old mice, 3.34 mg i.p., E:T 100:1): 28%
% Natural Killer Cell Cytotoxicity ([1]; 8 month old mice, 3.34 mg i.p., E:T 150:1): 38%
% Natural Killer Cell Cytotoxicity ([1]; 8 week old mice, 1.67 mg i.p., E:T 50:1): 15%
% Natural Killer Cell Cytotoxicity ([1]; 8 week old mice, 1.67 mg i.p., E:T 100:1): 20%
% Natural Killer Cell Cytotoxicity ([1]; 8 week old mice, 1.67 mg i.p., E:T 150:1): 24%
% Natural Killer Cell Cytotoxicity ([1]; 8 week old mice, 3.34 mg i.p., E:T 50:1): 17%
% Natural Killer Cell Cytotoxicity ([1]; 8 week old mice, 3.34 mg i.p., E:T 100:1): 27%
% Natural Killer Cell Cytotoxicity ([1]; 8 week old mice, 3.34 mg i.p., E:T 150:1): 31%
% Natural Killer Cytoxicity ([2]; 0.84 mg i.p., E:T 50:1): 38 ± 7%
% Natural Killer Cytoxicity ([2]; 0.84 mg i.p., E:T 100:1): 48 ± 9%
% Natural Killer Cytoxicity ([2]; 0.84 mg i.p., E:T 150:1): 56 ± 8.5%
increase in natural killer cell activity ([2]; 0.84 mg to 3.36 mg per mouse): all doses of compound 7 induced a marked increase in natural killer cell activity
% Natural Killer Cytoxicity ([2]; 1.68 mg i.p., E:T 50:1 (Table 4)): 44 ± 8%
% Natural Killer Cytoxicity ([2]; 1.68 mg i.p., E:T 100:1 (Table 4)): 56 ± 12%
% Natural Killer Cytoxicity ([2]; 1.68 mg i.p., E:T 150:1 (Table 4)): 61 ± 14%
% Natural Killer Cytotoxicity ([2]; 1 day after treatment, E:T 50:1): 53 ± 5%
% Natural Killer Cytotoxicity ([2]; 1 day after treatment, E:T 100:1): 64 ± 5%
% Natural Killer Cytotoxicity ([2]; 1 day after treatment, E:T 150:1): 71 ± 9%
% Natural Killer Cytotoxicity ([2]; 2 days after treatment, E:T 50:1): 46 ± 9%
% Natural Killer Cytotoxicity ([2]; 2 days after treatment, E:T 100:1): 64 ± 5%
% Natural Killer Cytotoxicity ([2]; 2 days after treatment, E:T 150:1): 65 ± 7%
% Natural Killer Cytotoxicity ([2]; 3 days after treatment, E:T 50:1): 38 ± 6.6%
% Natural Killer Cytotoxicity ([2]; 3 days after treatment, E:T 100:1): 50 ± 7%
% Natural Killer Cytotoxicity ([2]; 3 days after treatment, E:T 150:1): 63 ± 6%
% Natural Killer Cytotoxicity ([2]; 4 days after treatment, E:T 50:1): 30 ± 0.1%
% Natural Killer Cytotoxicity ([2]; 4 days after treatment, E:T 100:1): 37 ± 1.5%
% Natural Killer Cytotoxicity ([2]; 4 days after treatment, E:T 150:1): 48 ± 3%
% Natural Killer Cytoxicity ([2]; 2.52 mg i.p., E:T 50:1): 48 ± 6.6%
% Natural Killer Cytoxicity ([2]; 2.52 mg i.p., E:T 100:1): 62 ± 7%
% Natural Killer Cytoxicity ([2]; 2.52 mg i.p., E:T 150:1): 70 ± 5%
% Natural Killer Cytoxicity ([2]; 3.36 mg i.p., E:T 50:1): 48 ± 4.6%
% Natural Killer Cytoxicity ([2]; 3.36 mg i.p., E:T 100:1): 67 ± 10%
% Natural Killer Cytoxicity ([2]; 3.36 mg i.p., E:T 150:1): 74 ± 6.4%
Emax ([2]; Mus musculus, YAC-1, 24 h, read-out: maximum response, increase in natural killer cell activity): 382%
increase in natural killer cell activity ([2]; single injection 1.68 mg per mouse, after 4 days): More than a two fold increase
Mean Survival Time [3]: 9.3 ± 1.0 days
Mean Survival Time ([4]; 50 mg/kg/day): 14.8 ± 5.0 days
Mean Survival Time ([4]; 100 mg/kg/day): 11.4 ± 1.8 days
Mean Survival Time ([4]; 200 mg/kg/day): 11.0 ± 1.7 days
% Natural Killer Cell Cytotoxicity, + Compound 7 ([5]; 0.05 - 0.4 mM, 20 to 68 h, maximum response, donors 1 to 11, one line per donor in order): 91% and 29% and 54% and 47% and 16% and 18% and 10% and 22% and 15% and 20% and 32%
tests with an increase in the mediated potentiation ([5]; Donor 1, Table 2b): eight of the eight tests
tests with an increase in the mediated potentiation ([5]; Donor 2, Table 2b): six of six tests
mean natural killer cell cytotoxicity ([5]; PBMNC from eleven donors pretreated with compound 7 (untreated mean 11.7%)): 32.2%
% Natural Killer Cell Cytotoxicity ([5]; Table 22, 0.2 mM): 10%
% Increase in Induced Natural Killer Cell Activity ([5]; donors 1 to 11, one line per donor in order): 1031% and 548% and 220% and 88% and 123% and 141% and 167% and 150% and 0% and 63% and 8%
potentiation in natural killer cell cytotoxicity ([5]; eight of eleven donors): over 100%

Reference: patent US5041426A, “Immune system enhancing 3-β-d-ribofuranosylthiazolo[4,5-d]pyridimine nucleosides and nucleotides” (priority 1988, dated 1991)
